Columns and labels:
XMD14-99 + Trametinib = compound: CN1CCN(CC1)C2=CC(=C(C=C2)NC3=NC(=C(S3)C(=O)C4=C(C=CC=C4Cl)Cl)N)OC [XMD14-99] + CC(=O)Nc1cccc(-n2c(=O)n(C3CC3)c(=O)c3c(Nc4ccc(I)cc4F)n(C)c(=O)c(C)c32)c1 [Trametinib] (partner 0.02 µM); assay: relative viability (nuclei count vs DMSO), 5 days (fraction); higher = more cells survive
Summary of the method: (§1)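 Lung cancer cell lines, seeded in 1536-well plates, were treated the following day by pin tool with a single drug or with five library-drug doses (not always all listed) in √10 steps on top of a fixed anchor-drug dose. Cells were fixed and nuclei stained in one step after 5 days, and nuclei were counted. Relative viability is the nuclei count for treated wells divided by that for vehicle wells, reported as medians of duplicate plates.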

AZD1208 + Dasatinib = compound: N[C@@H]1CCCN(c2c(/C=C3\SC(=O)NC3=O)cccc2-c2ccccc2)C1 [AZD1208] + Cc1nc(Nc2ncc(C(=O)Nc3c(C)cccc3Cl)s2)cc(N2CCN(CCO)CC2)n1 [Dasatinib] (partner 0.075 µM); assay: as above
Summary of the method: as §1

| Cell Line | relative viability (XMD14-99 + Trametinib; first compound 0.08 µM) | relative viability (XMD14-99 + Trametinib; first compound 0.8 µM) | relative viability (XMD14-99 + Trametinib; first compound 2.53 µM) | relative viability (XMD14-99 + Trametinib; first compound 8 µM) | relative viability (AZD1208 + Dasatinib; first compound 0.08 µM) | relative viability (AZD1208 + Dasatinib; first compound 0.253 µM) | relative viability (AZD1208 + Dasatinib; first compound 0.8 µM) | relative viability (AZD1208 + Dasatinib; first compound 2.53 µM) | relative viability (AZD1208 + Dasatinib; first compound 8 µM) |
| --- | --- | --- | --- | --- | --- | --- | --- | --- | --- |
| NCI-H2347 | 0.278 | 0.288 | 0.304 | 0.269 | 0.306 | 0.339 | 0.339 | 0.321 | 0.257 |
| HCC-366 | 0.424 | 0.309 | 0.377 | 0.261 | 0.625 | 0.64 | 0.479 | 0.493 | 0.287 |
| EMC-BAC-2 | 0.832 | 0.716 | 0.744 | 0.668 | 0.301 | 0.319 | 0.321 | 0.32 | 0.264 |
| NCI-H3122 | 0.261 | 0.22 | 0.269 | 0.22 | 0.833 | 0.75 | 0.642 | 0.618 | 0.0921 |
| NCI-H358 | 0.118 | 0.179 | 0.134 | 0.127 | 0.138 | 0.142 | 0.139 | 0.116 | 0.142 |
| NCI-H1944 | 0.446 | 0.374 | 0.381 | 0.338 | 0.196 | 0.178 | 0.175 | 0.193 | 0.16 |
| NCI-H2342 | 0.885 | 0.882 | 0.949 | 0.848 | 0.284 | 0.354 | 0.28 | 0.3 | 0.267 |
| EPLC-272H | 0.274 | 0.265 | 0.287 | 0.251 | 0.3 | 0.363 | 0.286 | 0.305 | 0.252 |
| NCI-H1915 | 0.301 | 0.311 | 0.25 | 0.224 | 0.305 | 0.298 | 0.296 | 0.294 | 0.239 |
| NCI-H647 | 0.456 | 0.495 | 0.582 | 0.442 | 0.119 | 0.226 | 0.106 | 0.132 | 0.169 |
| NCI-H441 | 0.523 | 0.436 | 0.389 | 0.263 | 0.593 | 0.486 | 0.425 | 0.55 | 0.437 |
| NCI-H23 | 0.487 | 0.326 | 0.47 | 0.364 | 0.641 | 0.887 | 0.668 | 0.714 | 0.614 |
| NCI-H522 | 0.783 | 0.901 | 0.75 | 0.85 | 0.828 | 0.774 | 0.911 | 0.78 | 0.717 |
| NCI-H650 | 0.861 | 0.932 | 1.05 | 0.907 | 0.509 | 0.451 | 0.385 | 0.379 | 0.338 |
| SK-MES-1 | 0.524 | 0.564 | 0.622 | 0.392 | 0.336 | 0.336 | 0.284 | 0.341 | 0.306 |
| NCI-H2170 | 0.924 | 0.873 | 0.828 | 0.786 | 0.615 | 0.542 | 0.478 | 0.485 | 0.406 |
| NCI-H2087 | 0.174 | 0.176 | 0.162 | 0.122 | 0.763 | 0.824 | 0.641 | 0.573 | 0.715 |
| NCI-H838 | 0.502 | 0.486 | 0.433 | 0.357 | 0.329 | 0.365 | 0.272 | 0.311 | 0.274 |

Source: the supplement of paper PMC10307832
